From patent publication US20240130368A1, “HERBICIDAL COMPOSITION” (Nippon Soda Co., Ltd., priority 2021, published 2024)

What was measured:
Assay type in all cases: in vivo
Digitaria ciliaris = assay: Test Example 2: seeds on filter paper moistened with chemical solution, herbicidal effect visually evaluated; conditions: Compound (I-3) alone, 0.2 ppm, 6 days after the treatment
Senna obtusifolia = assay: Test Example 4: foliar spraying treatment, herbicidal effect from above ground weight; conditions: Compound (I-3) alone, 63 gai/ha, 3 weeks after spraying
Experimental: (§1) POA allylphenyl ether (4.1 parts by weight), POE-POP glycol (1 part by weight), POE sorbitan laurate (0.8 parts by weight), glycerin (2.6 parts by weight), dimethylformamide (65.9 parts by weight), N-methylpyrrolidone (5.1 parts by weight), cyclohexanone (15.4 parts by weight), and aromatic hydrocarbons (5.1 parts by weight) were mixed and dissolved to prepare an emulsion. The active ingredient (4 mg) of the composition of the present invention was dissolved in this emulsion (100 μL) to prepare a test emulsion. It should be noted that POA means “polyoxyalkylene”, POE means “polyoxyethylene”, and POP means “polyoxypropylene”.
(§2) A 300 cm^2 pot was filled with soil, and seeds of Zea mays, Setaria faberi, Sorghum halepense, Brachiaria platyphylla, Amaranthus palmeri, Senna obtusifolia and Ipomoea hederacea were sown into the surface layer, and then grown in a greenhouse after being covered lightly with soil. When each plant grew to a plant height of 7 to 11 cm, it was used for the test. The test emulsion was diluted so that the amount of the active ingredient became a predetermined amount, and sprayed on the foliage with a small sprayer at a spray water volume of 250 L per hectare.
(§3) For the evaluation of the herbicidal effects, the above ground weights of weeds in the untreated and treated areas were measured for each weed 3 weeks after spraying treatment, and the herbicidal effect (%) was calculated by the following calculation formula.
(§4) In addition, the expected values of the herbicidal effects were calculated from the herbicidal effects in a case where the compound (I) alone was applied and the herbicidal effects in a case where the compound (II) alone was applied by using the Colby's formula (Colby, S. R., Calculating synergistic and antagonistic responses of herbicide combinations, Weeds, 15, pp. 20-22 (1967)).
(§5) M indicates an herbicidal effect (%) in the application of the compound (1) alone, N indicates an herbicidal effect (%) in the application of the compound (II) alone, and E indicates an expected value (%) of the herbicidal effect in the combined application of the compound (I) and the compound (II). When the actual measured value (%) of the herbicidal effect in the combined application of the compound (I) and the compound (II) is greater than the expected value E, it can be regarded that the combined application of the compound (1) and the compound (II) has a synergistic effect.
(§6) Herbicidal effect (%)=[(above ground weight of weeds in untreated area)−(above ground weight of weeds in treated area)/(above ground weight of weeds in untreated area)]×100
(§7) The following grass species were used as grass species to be controlled [scientific names]. • Giant foxtail [Setaria faberi] • Johnson grass [Sorghum halepense] • Broadleaf signalgrass [Brachiaria platyphylla] • Palmer amaranth [Amaranthus palmeri] • Sicklepod [Senna obtusifolia] • Morning glory [Ipomoea hederacea]

Amaranthus palmeri = assay: as above; conditions: Compound (I-3) alone, 63 gai/ha, 3 weeks after spraying
Experimental: as §1, §2, §3, §4, §5, §6, §7

Sorghum halepense = assay: as above; conditions: Compound (I-3) alone, 63 gai/ha, 3 weeks after spraying
Experimental: as §1, §2, §3, §4, §5, §6, §7

Ipomoea hederacea = assay: as above; conditions: Compound (I-3) alone, 63 gai/ha, 3 weeks after spraying
Experimental: as §1, §2, §3, §4, §5, §6, §7

Setaria faberi = assay: as above; conditions: Compound (I-3) alone, 63 gai/ha, 3 weeks after spraying
Experimental: as §1, §2, §3, §4, §5, §6, §7

Brachiaria platyphylla = assay: as above; conditions: Compound (I-3) alone, 63 gai/ha, 3 weeks after spraying
Experimental: as §1, §2, §3, §4, §5, §6, §7

Zea mays = assay: Test Example 4: foliar spraying treatment, herbicidal effect from above ground weight (useful plant); conditions: Compound (I-3) alone, 63 gai/ha, 3 weeks after spraying
Experimental: as §1, §2, §3
In addition, the expected values of the herbicidal effects were calculated from the herbicidal effects in a case where the compound (I) alone was applied and the herbicidal effects in a case where the compound (II) alone was applied by using the Colby's formula (Colby, S. R., Calculating synergistic and antagonistic responses of herbicide combinations, Weeds, 15, pp. 20-22 (1967)). […]

Question: How did the Herbicidal effect (Digitaria ciliaris) turn out when COC12OC1(c1ccc(C(F)(F)F)c3c1CCCS3(=O)=O)C=NN(C)C2=O (centres unmarked) [Compound (I-3), 1-methoxy-3-methyl-6-(1,1-dioxido-8-(trifluoromethyl)thiochroman-5-yl)-7-oxa-3,4-diazabicyclo[4.1.0]hept-4-en-2-one] was run?
Answer: 75%

Question: What about the “Actual measured value of herbicidal effect” value (shortened to “Actual measured value”) (Senna obtusifolia) of the same molecule?
Answer: 60%

Question: And the “Actual measured value” value (Amaranthus palmeri)?
Answer: 100%

Question: And the “Actual measured value” value (Sorghum halepense)?
Answer: 80%

Question: What about the “Actual measured value” value (Ipomoea hederacea) of the same molecule?
Answer: 70%

Question: And the “Actual measured value” value (Setaria faberi)?
Answer: 80%

Question: What about the “Actual measured value” value (Brachiaria platyphylla) of the same molecule?
Answer: 80%

Question: What about the “Actual measured value” value (Zea mays) of the same molecule?
Answer: 0%
